From BindingDB's records for PubMed 32485533 (Isf College of Pharmacy, 2020) come the findings set out here.

The term IC50 denotes the concentration that inhibits the measured activity by half.

The test is described as follows: Inhibition of human recombinant sPLA2-V at 1 uM.

For `COc1ccc(-c2nc3c(C(N)=O)cccc3[nH]2)cc1` [2-(4-methoxyphenyl)-1H-1,3-benzodiazole-4-carboxamide], the IC50 worked out at 3.22 µM.
